In the NIST ThermoML archive (doi:10.1016/j.jct.2017.07.003):

Columns and labels:
[1] = mn = molality of the nth substance listed, in mol/kg; conditions: 100 kPa, Liquid, Frequency=0.01 MHz, Alternating current cell with electrodes
[2] = xn = mol fraction of the nth substance listed; conditions: 100 kPa, Liquid, Frequency=0.01 MHz, Alternating current cell with electrodes
[3] = 100 kPa, Liquid, Frequency=0.01 MHz, Alternating current cell with electrodes

[I-].[Na+] [sodium iodide] + CCCO
[1]
Conditions | electrical conductivity [S/m]
293.15 K, m1 = 0.0007138 | 0.00107
298.15 K, m1 = 0.0009446 | 0.00154
303.15 K, m1 = 0.0007238 | 0.00135
308.15 K, m1 = 0.0006021 | 0.00126

CCCO [propan-1-ol] + O
electrical conductivity [S/m], [2]
Conditions | x2 = 0 | x2 = 0.1 | x2 = 0.2 | x2 = 0.3 | x2 = 0.4 | x2 = 0.5 | x2 = 0.6 | x2 = 0.7 | x2 = 0.8
293.15 K | 1.51e-06 | 3.98e-06 | 8.35e-06 | 1.38e-05 | 1.71e-05 | 2.01e-05 | 2.54e-05 | 2.84e-05 | 3.15e-05
298.15 K | 1.8e-06 | 4.32e-06 | 8.31e-06 | 1.46e-05 | 1.86e-05 | 2.13e-05 | 2.55e-05 | 2.93e-05 | 3.36e-05
303.15 K | 2.16e-06 | 4.68e-06 | 1.03e-05 | 1.58e-05 | 1.92e-05 | 2.27e-05 | 2.68e-05 | 3.06e-05 | 3.5e-05
308.15 K | 2.38e-06 | 4.92e-06 | 8.6e-06 | 1.65e-05 | 2.01e-05 | 2.55e-05 | 2.96e-05 | 3.26e-05 | 3.75e-05

CCCO [propan-1-ol]
[3]
Conditions | electrical conductivity [S/m]
293.15 K | 1.51e-06
298.15 K | 1.8e-06
303.15 K | 2.16e-06
308.15 K | 2.38e-06
